Laboratory results published in US10488416B2, “Targeting breast cancer therapy based on stromal subtypes and CD146 composition” (The Regents of the University of Colorado, a Body Corporate, priority 2014, dated 2019).

B1: HBEGF: HBEGF added to CD146pos CAF conditioned media in the invasion assay (protein, UniProt Q99075 63-148, looked up)
Heparin-binding EGF-like …: DLQEADLDLLRVTLSSKPQALATPNKEEHGKRKKKGKGLGKKRDPCLRKYKDFCIHGECKYVKELRAPSCICHPGYHGERCHGLSL

Tested on: MCF7 cells
Experiment: MCF7 invasion scratch wound assay through Matrigel in CAF conditioned media
Assay type: cell-based, human
Details: for effect on CD146neg CAF induced invasion: MCF7 in CD146neg CAF conditioned media

| Molecule | effect on CD146neg CAF induced invasion | effect on CD146neg CAF induced invasion (listed as gefitibib) | effect on invasion (MCF7 in CD146pos CAF conditioned media) |
| --- | --- | --- | --- |
| COc1cc2ncnc(Nc3ccc(F)c(Cl)c3)c2cc1OCCCN1CCOCC1 [gefitinib] | successfully blocked | inhibited |  |
| B1 |  |  | stimulated |
